# From US9901608B2, “Composition and method for enhancing alcohol metabolism” (GANGNEUNG-WONJU NATIONAL UNIVERSITY INDUSTRY ACADEMY …, priority 2014, dated 2018)
# Legend:
# [1] = tested on: ALDH (acetaldehyde dehydrogenase) gene; assay: qPCR of ALDH mRNA in HepG2 cells; assay type: cell-based, human; settings: HepG2, 10 μM, 1 and 2 h
# Description: To evaluate the role of the GFM in ethanol metabolism, the genes of primary enzymes (ADH, ALDH, CYP2E1, and catalase) involved in eliminating ethanol from the body were quantified by real-time qPCR. Particularly, total RNA extracts from HepG2 cells (1×10^6 cells/well) treated with ethanol (0.2 mM) or GFM (10 μg/ml) were prepared using the Trizol method (Invitrogen) after 1, 2, 4 and 24 h after the treatment. And then, cDNA was synthesized from RNA by reverse transcription of 1 μg of total RNA using the Improm-II reverse transcription system (Promega) and oligo dT primers in a total volume of 20 μL. PCR amplification was performed using the primers described in Table 1 (Bioneer, Deajeon, Republic of Korea). Quantitative real-time PCR reactions were run on a Rotor-Gene 6000 (Corbett Research, Sydney, Australia) using SYBR Green PCR Master Mix (Qiagen, Valencia, Calif., USA) in 20 μL reaction mixtures. Each real-time-PCR master mix contained 10 μL 2× enzyme mastermix, 7.0 μL RNase free water, 1 μL of each primer (10 μM each) and 1 μL diluted template. […] Relative sample expression levels were calculated using Rotor-Gene 6000 Series Software 1.7 and were expressed relative to glyceraldehyde 3-phosphate dehydrogenase and corrected for between-run variability. Data for the experimental samples were expressed as a percentage of the internal control gene. […]
# [2] = Hepatoprotective effect: serum GOT and GPT after oral ethanol; settings: 20% ethanol only, 300 μl oral, 8 h after ethanol
# Description: (§1) GFM suspended in saline solution was orally administrated (25 mg/kg) and CTD dried and then resolved in saline solution (50 mg/kg) was used as positive control (50 mg/kg). Before the administration, the experimental animals fasted 4 hours, and after the administration additional 1 hour of fasting was performed.
# [3] = Side effects: body weights, organ masses, symptoms after administration; settings: ethanol only (300 μl of 20% ethanol oral), 8 h
# Description: as §1
# HepG2 cells = assay: Cytotoxicity assay by LDH release; assay type: cell-based, human; settings: HepG2, ethanol 200 mM
# Description: HepG2 human hepatoma cells (Korean Cell Line Bank, Seoul, Republic of Korea) were grown in RPMI1640 complete medium (Hyclone, Logan, Utah, USA) supplemented with 10% fetal bovine serum, 100 U/mL penicillin, and 100 μg/mL streptomycin (Invitrogen, Carlsbad, Calif., USA). The cultures were maintained under 5% CO2 at 37° C. in tissue culture flasks. For all experiments, cells were grown to >90% confluency and subjected to no more than 20 cell passages. The medium was changed every 2-3 days. Subconfluent cells were harvested and seeded at a density of 5×10^5 cells or 1.5×10^6 cells in poly-L-lysine-coated 35 mm or 60 mm culture plates. […]
# Cytotoxicity of the GFM was investigated by measuring lactate dehydrogenase (LDH) release from HepG2 cells. That is, the cytotoxicity induced by the GFM in HepG2 cells was quantified by measuring LDH release at varying ranges of concentration (1-1,000 μg/mL). Cytotoxicity in experimental samples was determined as % LDH release, and the data from triplicate cultures were expressed as the mean±standard deviation. Concentration-dependent cytotoxicity determined as % LDH release was compared with non-treated control cells (Ctrl) and H2O2 (1 mM)-treated control was used as a positive control. […] Formazan was quantified spectrophotometrically by measuring its absorbance at 490 nm (Spectra Max 340, Molecular Devices, Sunnyvale, Calif., USA).
# [4] = male, BALB/c, mouse, in vivo, 1 h
# Description: Male BALB/c mice (7-week old) were purchased from Samtaco (Osan, Kyunggi-do, Republic of Korea), and were adapted to laboratory conditions (temperature: 20±2° C., relative humidity: 50%, light/dark cycle: 12 h) for 1 week. […] Perfused liver tissues from the treated mice were prepared using the Trizol method (Invitrogen, USA).
# The enzymatic analysis was conducted with ALDH according to the method of Lundquist (Lundquist F. et al., Biochem. J., 68:172-177, 1958; Lundquist F. et al., In: Bergmeier H U (ed) Methods of enzymatic analysis. 2nd ed. Weinheim/New York and London, 230-257, 1974). This enzymatic test for alcohol utilizes the coenzyme NAD and ADH. The amount of NADH formed is stoichiometric to the amount of acetaldehyde. NADH was determined by light absorbance at 365 nm.
serum GOT [2],serum GPT [2],serum ethanol detected by GC [4],Structure (SMILES),ALDH mRNA expression induced by fatty acid [1],Body weight [3],Liver mass [3],Spleen mass [3],cytotoxicity (% LDH release) (HepG2 cells)
,,,"CCCCC/C=C\C/C=C\CCCCCCCC(=O)O [LA, linoleic acid]",effectiveness of GFM might be mainly from LA,,,,
259.00 ± 17.44 IU/L,150.50 ± 10.13 IU/L,12.2%,CCO [ethanol],,21.00 ± 0.57 g,1.31 ± 0.11 g,0.09 ± 0.01 g,not cytotoxic
